Laboratory results from PubChem BioAssay (NCI).
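At the GI50, growth is halved. At the TGI there is no net growth.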

How the values were obtained:
Experiment in all cases: NCI anticancer screen, dose series, 384-well format
NCI-H522 lung = test system: NCI-H522 lung
SK-MEL-5 melanoma = test system: SK-MEL-5 melanoma
OVCAR-3 ovarian = test system: OVCAR-3 ovarian
RXF 393 renal = test system: RXF 393 renal
HS 578T breast = test system: HS 578T breast
NCI-H322M lung = test system: NCI-H322M lung
HCT-15 colon = test system: HCT-15 colon
UACC-257 melanoma = test system: UACC-257 melanoma
MOLT-4 leukemia = test system: MOLT-4 leukemia
HOP-92 NSCLC = test system: HOP-92 NSCLC
SK-MEL-28 melanoma = test system: SK-MEL-28 melanoma
HL-60(TB) leukemia = test system: HL-60(TB) leukemia
MDA-MB-435 melanoma = test system: MDA-MB-435 melanoma
SF-268 CNS = test system: SF-268 CNS
DU-145 prostate = test system: DU-145 prostate
MDA-MB-231 breast = test system: MDA-MB-231 breast
SNB-75 CNS = test system: SNB-75 CNS
NCI-H226 lung = test system: NCI-H226 lung
SNB-19 CNS = test system: SNB-19 CNS
NCI/ADR-RES ovarian = test system: NCI/ADR-RES ovarian
SK-OV-3 ovarian = test system: SK-OV-3 ovarian
TK-10 renal = test system: TK-10 renal
UO-31 renal = test system: UO-31 renal
HOP-62 NSCLC = test system: HOP-62 NSCLC
OVCAR-5 ovarian = test system: OVCAR-5 ovarian
786-0 renal = test system: 786-0 renal
NCI-H23 lung = test system: NCI-H23 lung
ACHN renal = test system: ACHN renal
SN12C renal = test system: SN12C renal
MCF7 breast = test system: MCF7 breast
OVCAR-4 ovarian = test system: OVCAR-4 ovarian
KM12 colon = test system: KM12 colon
CAKI-1 renal = test system: CAKI-1 renal
SF-539 CNS = test system: SF-539 CNS
PC-3 prostate = test system: PC-3 prostate
A498 renal = test system: A498 renal
HT29 colon = test system: HT29 colon
U251 glioblastoma = test system: U251 glioblastoma
RPMI-8226 leukemia = test system: RPMI-8226 leukemia
COLO 205 colon = test system: COLO 205 colon
UACC-62 melanoma = test system: UACC-62 melanoma
K-562 leukemia = test system: K-562 leukemia
SK-MEL-2 melanoma = test system: SK-MEL-2 melanoma
LOX IMVI melanoma = test system: LOX IMVI melanoma
BT-549 breast = test system: BT-549 breast
NCI-H460 NSCLC = test system: NCI-H460 NSCLC
MALME-3M melanoma = test system: MALME-3M melanoma
M14 melanoma = test system: M14 melanoma
SF-295 CNS = test system: SF-295 CNS
HCC-2998 colon = test system: HCC-2998 colon
IGROV1 ovarian = test system: IGROV1 ovarian
SW-620 colon = test system: SW-620 colon
A549 NSCLC = test system: A549 NSCLC
HCT-116 colon = test system: HCT-116 colon
EKVX NSCLC = test system: EKVX NSCLC
T-47D breast = test system: T-47D breast

With `CO[C@@H](C(=O)N1Cc2[nH]nc(NC(=O)c3ccc(N4CCN(C)CC4)cc3)c2C1)c1ccccc1` the GI50 (NCI-H522 lung) was 34.6 nM, the TGI (NCI-H522 lung) was 561 nM and the GI50 (SK-MEL-5 melanoma) was 11.2 µM. The TGI (SK-MEL-5 melanoma) was 24.6 µM, the GI50 (OVCAR-3 ovarian) was 113 nM and the TGI (OVCAR-3 ovarian) was 2640 nM. It also gave a GI50 (RXF 393 renal) of 334 nM, a TGI (RXF 393 renal) of 2040 nM and a GI50 (HS 578T breast) of 1100 nM. For the same compound, the TGI (HS 578T breast) was 2440 nM, the GI50 (NCI-H322M lung) was 3.17 µM and the TGI (NCI-H322M lung) was 16.7 µM. The GI50 (HCT-15 colon) was 14.7 µM, the TGI (HCT-15 colon) was > 100 µM and the GI50 (UACC-257 melanoma) was 13.1 µM. For the same compound, the TGI (UACC-257 melanoma) was 26.4 µM, the GI50 (MOLT-4 leukemia) was 18.9 nM and the TGI (MOLT-4 leukemia) was 44.5 nM. For the same compound, the TGI (HOP-92 NSCLC) was 2800 nM, the GI50 (SK-MEL-28 melanoma) was 2670 nM and the TGI (SK-MEL-28 melanoma) was 18.7 µM. The GI50 (HL-60(TB) leukemia) was 46.6 nM, the TGI (HL-60(TB) leukemia) was 1510 nM and the GI50 (MDA-MB-435 melanoma) was 16.9 µM. For the same compound, the TGI (MDA-MB-435 melanoma) was 32.9 µM, the GI50 (SF-268 CNS) was 1020 nM and the TGI (SF-268 CNS) was 2690 nM. For the same compound, the GI50 (DU-145 prostate) was 451 nM, the TGI (DU-145 prostate) was 24.4 µM and the GI50 (MDA-MB-231 breast) was 2360 nM. For the same compound, the TGI (MDA-MB-231 breast) was > 100 µM, the GI50 (SNB-75 CNS) was 769 nM and the TGI (SNB-75 CNS) was 2090 nM. For the same compound, the GI50 (NCI-H226 lung) was 623 nM, the TGI (NCI-H226 lung) was 4.91 µM and the GI50 (SNB-19 CNS) was 2290 nM. For the same compound, the TGI (SNB-19 CNS) was > 100 µM, the GI50 (NCI/ADR-RES ovarian) was > 100 µM and the TGI (NCI/ADR-RES ovarian) was > 100 µM. The GI50 (SK-OV-3 ovarian) was 899 nM, the TGI (SK-OV-3 ovarian) was 12.5 µM and the GI50 (TK-10 renal) was 1590 nM. It also gave a TGI (TK-10 renal) of 17.8 µM, a GI50 (UO-31 renal) of 11 µM and a TGI (UO-31 renal) of 25.4 µM. For the same compound, the GI50 (HOP-62 NSCLC) was 676 nM, the TGI (HOP-62 NSCLC) was 10.5 µM and the GI50 (OVCAR-5 ovarian) was 1700 nM. The TGI (OVCAR-5 ovarian) was 9.22 µM, the GI50 ([…]-0 renal) was 2530 nM and the TGI (786-0 renal) was 15.1 µM. It also gave a GI50 (NCI-H23 lung) of 822 nM, a TGI (NCI-H23 lung) of 12.9 µM and a GI50 (ACHN renal) of 2410 nM. It also gave a TGI (ACHN renal) of 18.6 µM, a GI50 (SN12C renal) of 737 nM and a TGI (SN12C renal) of 3.53 µM. It also gave a GI50 (MCF7 breast) of 37.1 nM, a TGI (MCF7 breast) of 13.7 µM and a GI50 (OVCAR-4 ovarian) of 566 nM. For the same compound, the TGI (OVCAR-4 ovarian) was 23.9 µM, the GI50 (KM12 colon) was 175 nM and the TGI (KM12 colon) was 10.9 µM. For the same compound, the GI50 (CAKI-1 renal) was 1210 nM, the TGI (CAKI-1 renal) was 9.85 µM and the GI50 (SF-539 CNS) was 237 nM. It also gave a TGI (SF-539 CNS) of 1420 nM, a GI50 (PC-3 prostate) of 1630 nM and a TGI (PC-3 prostate) of 48.6 µM. The GI50 (A498 renal) was 1230 nM, the TGI (A498 renal) was 25.6 µM and the GI50 (HT29 colon) was 4.96 µM. The TGI (HT29 colon) was > 100 µM, the GI50 (U251 glioblastoma) was 1710 nM and the TGI (U251 glioblastoma) was 16.9 µM. The GI50 (RPMI-8226 leukemia) was 327 nM, the TGI (RPMI-8226 leukemia) was 1460 nM and the GI50 (COLO 205 colon) was 24.4 nM. The TGI (COLO 205 colon) was 63.9 nM, the GI50 (UACC-62 melanoma) was 561 nM and the TGI (UACC-62 melanoma) was 20.1 µM. It also gave a GI50 (K-562 leukemia) of 32.6 nM, a TGI (K-562 leukemia) of 167 nM and a GI50 (SK-MEL-2 melanoma) of 15.5 µM. For the same compound, the TGI (SK-MEL-2 melanoma) was 29.1 µM, the GI50 (LOX IMVI melanoma) was 330 nM and the TGI (LOX IMVI melanoma) was 1690 nM. It also gave a GI50 (BT-549 breast) of 270 nM, a TGI (BT-549 breast) of 1470 nM and a GI50 (NCI-H460 NSCLC) of 88.5 nM. The TGI (NCI-H460 NSCLC) was 1260 nM, the GI50 (MALME-3M melanoma) was 642 nM and the TGI (MALME-3M melanoma) was 15.2 µM. It also gave a GI50 (M14 melanoma) of 9.89 µM, a TGI (M14 melanoma) of 26.3 µM and a GI50 (SF-295 CNS) of 1700 nM. It also gave a TGI (SF-295 CNS) of 54.4 µM, a GI50 (HCC-2998 colon) of 12.7 µM and a TGI (HCC-2998 colon) of 30.3 µM. For the same compound, the GI50 (IGROV1 ovarian) was 547 nM, the TGI (IGROV1 ovarian) was 2790 nM and the GI50 (SW-620 colon) was 848 nM. For the same compound, the TGI (SW-620 colon) was 13 µM, the GI50 (A549 NSCLC) was 442 nM and the TGI (A549 NSCLC) was 15.5 µM. It also gave a GI50 (HCT-116 colon) of 120 nM, a TGI (HCT-116 colon) of 25.2 µM and a GI50 (EKVX NSCLC) of 1050 nM. The TGI (EKVX NSCLC) was 15.8 µM, the GI50 (T-47D breast) was 9.18 µM and the TGI (T-47D breast) was 28 µM.
